The source of these data is patent US20230116703A1, “NOVEL ERGOLINES AND METHODS OF TREATING MOOD DISORDERS” (priority 2021, published 2023).

The target in one assay is T1, 5-HT2A receptor (Homo sapiens, UniProt P28223).
T1 construct: host or cells: HEK293
Nature of the assay: biochemical. The conditions noted are these: 1 nM [^3H]ketanserin, HEK293 stable cell line; read-out: 5-HT2A Receptor Ki (nM) ([^3H]ketanserin). It counts as binding. In short, it runs like this:
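Values reflect [^3H]ketanserin binding competition. Assay conditions were adapted from the literature.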

For a further assay, the target named is T2, human 5-HT2C receptor (Homo sapiens, UniProt P28335).
T2 sequence (P28335 33-458): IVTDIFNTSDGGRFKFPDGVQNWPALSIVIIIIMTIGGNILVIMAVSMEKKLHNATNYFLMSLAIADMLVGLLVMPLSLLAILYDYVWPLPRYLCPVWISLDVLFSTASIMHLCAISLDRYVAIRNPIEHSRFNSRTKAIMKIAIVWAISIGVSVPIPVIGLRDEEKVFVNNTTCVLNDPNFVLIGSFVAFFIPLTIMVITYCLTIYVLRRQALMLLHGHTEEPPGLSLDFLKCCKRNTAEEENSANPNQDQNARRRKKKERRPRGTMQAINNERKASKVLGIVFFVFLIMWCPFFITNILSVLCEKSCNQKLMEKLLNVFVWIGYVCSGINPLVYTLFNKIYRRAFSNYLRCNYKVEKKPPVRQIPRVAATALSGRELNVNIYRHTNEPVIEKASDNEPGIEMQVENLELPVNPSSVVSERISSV
The experiment in a line: cell-based. As to conditions: Ca^2+ flux, agonist.

The target in the next assay is T3, Alpha1A receptor (Homo sapiens, UniProt P35348).
T3 sequence (P35348 1-466): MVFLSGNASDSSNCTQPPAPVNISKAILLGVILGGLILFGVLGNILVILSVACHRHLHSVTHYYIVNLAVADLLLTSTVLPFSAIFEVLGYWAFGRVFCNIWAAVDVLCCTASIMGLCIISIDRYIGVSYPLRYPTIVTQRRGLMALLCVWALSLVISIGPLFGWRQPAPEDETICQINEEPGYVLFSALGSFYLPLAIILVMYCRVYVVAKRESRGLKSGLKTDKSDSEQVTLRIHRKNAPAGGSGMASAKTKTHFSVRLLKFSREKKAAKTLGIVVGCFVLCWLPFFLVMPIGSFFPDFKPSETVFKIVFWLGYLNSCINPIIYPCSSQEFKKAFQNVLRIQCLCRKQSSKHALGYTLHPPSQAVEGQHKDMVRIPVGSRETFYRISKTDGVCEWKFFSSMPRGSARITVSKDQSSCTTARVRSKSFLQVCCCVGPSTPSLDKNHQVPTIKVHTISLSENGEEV
Nature of the assay: FLIPR Ca^2+ flux agonist assay at Alpha1A. The assay is classed as cell-based. Here is the method: Disclosed compounds were tested for agonist activity at several adrenergic (Alpha1A and Alpha2A) and dopamine (D1 and D2) receptor subtypes using Ca^2+ flux functional assays, with the results summarized in Table 6. Selectivity for the 5-HT2A receptor over these other targets varied depending on the specific target and compound.
(§1) Functional Assays at Adrenergic and Dopamine Receptors. Agonist activity at Alpha1A, Alpha2A, D1, and D2 receptors was determined using a FLIPR Ca^2+ flux assay at WuXi AppTec (Hong Kong) Limited according to their standard protocols. Briefly, stably transfected cells expressing the receptor of interest were grown and plated in a 384 well plate and incubated at 37° C. and 5% CO2 overnight. A solution of 250 mM probenecid in 1 mL FLIPR assay buffer was prepared fresh. This was combined with a fluorescent dye (Fluo-4 Direct™) to make a final assay concentration of 2.5 mM. Compounds were diluted 1:3.16 for 10 points and 750 nL was added to a 384 well compound plate using ECHO along with 30 μL assay buffer. The fluorescent dye was then added to the assay plate along with assay buffer to a final volume of 40 μL. The cell plate was incubated for 50 min at 37° C. and 5% CO2 and placed into the FLIPR Tetra along with the compound plate. 10 μL of references and compounds were then transferred from the compound plate into the cell plate and the fluorescent signal was read.

In the next assay the target is D1 receptor (Homo sapiens, UniProt P21728). Nature of the assay: FLIPR Ca^2+ flux agonist assay at D1. The assay is classed as cell-based. Here is the method:
as §1, with “Compounds were diluted 1:3.16 for 10 points and 750 nL was added to a 384 well compound plate using ECHO along with 30 μL assay buffer.” left out

[1] abbreviates: Ca^2+ flux, agonist, read-out: Alpha1A EC50.
[2] abbreviates: Ca^2+ flux, agonist, read-out: D1 EC50.

Read-outs that look alike come from different tables or passages of the source.

T1 sequence (P28223 whole entry): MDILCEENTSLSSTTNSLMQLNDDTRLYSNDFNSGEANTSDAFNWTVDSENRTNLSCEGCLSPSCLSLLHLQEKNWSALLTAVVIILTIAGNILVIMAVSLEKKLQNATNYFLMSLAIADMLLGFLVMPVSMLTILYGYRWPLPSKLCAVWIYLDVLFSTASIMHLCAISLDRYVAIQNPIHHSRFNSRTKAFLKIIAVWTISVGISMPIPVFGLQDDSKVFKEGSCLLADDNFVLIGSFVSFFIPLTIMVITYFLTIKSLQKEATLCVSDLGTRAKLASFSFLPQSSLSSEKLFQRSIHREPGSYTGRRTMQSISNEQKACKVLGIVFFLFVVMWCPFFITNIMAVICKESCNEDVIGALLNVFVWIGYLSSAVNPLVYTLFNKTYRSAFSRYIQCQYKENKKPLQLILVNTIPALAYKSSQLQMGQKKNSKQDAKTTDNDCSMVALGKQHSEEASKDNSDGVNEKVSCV
D1 receptor, sequence (P21728 whole entry): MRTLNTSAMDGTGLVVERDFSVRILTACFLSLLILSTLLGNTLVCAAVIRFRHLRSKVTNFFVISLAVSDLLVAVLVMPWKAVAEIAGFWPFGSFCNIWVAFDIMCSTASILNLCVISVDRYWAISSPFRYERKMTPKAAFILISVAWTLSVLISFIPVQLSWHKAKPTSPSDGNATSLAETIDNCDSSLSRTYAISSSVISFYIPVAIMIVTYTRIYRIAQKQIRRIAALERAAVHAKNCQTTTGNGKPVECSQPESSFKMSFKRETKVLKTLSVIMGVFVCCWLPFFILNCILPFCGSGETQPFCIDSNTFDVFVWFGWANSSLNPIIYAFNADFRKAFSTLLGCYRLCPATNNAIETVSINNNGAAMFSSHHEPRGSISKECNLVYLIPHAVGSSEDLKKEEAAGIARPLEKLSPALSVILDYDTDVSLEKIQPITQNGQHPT

As to `CCN(CC)C(=O)[C@@H]1C=C2c3cccc4[nH]cc(c34)C[C@H]2N(Cc2ccccc2OC)C1` [Compound 10, (6aR,9R)—N,N-diethyl-7-(2-methoxybenzyl)-4,6,6a,7,8,9-hexahydroindolo[4,3-fg]quinoline-9-carboxamide], the Ki on 5-HT2A receptor came to 32.7 nM. Also, the EC50 on human 5-HT2C receptor was over 10000 nM; at Alpha1A receptor (setting [1]), over 31600 nM; on D1 receptor (setting [2]) it was 2780 nM.

Consider `CCCN1C[C@H](C(=O)NC(CC)CC)C=C2c3cccc4[nH]cc(c34)C[C@H]21` [Compound 6, (6aR,9R)—N-(pentan-3-yl)-7-propyl-4,6,6a,7,8,9-hexahydroindolo[4,3-fg]quinoline-9-carboxamide], for which, on 5-HT2A receptor, the inhibition constant Ki was 1.16 nM. Moreover, the EC50 on human 5-HT2C receptor amounted to 6.18 nM; on D1 receptor it was 18.1 nM.

On to `CCCN1C[C@H](C(=O)N2[C@@H](C)C[C@@H]2C)C=C2c3cccc4[nH]cc(c34)C[C@H]21` [Compound 4, ((2S,4S)-2,4-dimethylazetidin-1-yl)((6aR,9R)-7-propyl-4,6,6a,7,8,9-hexahydroindolo[4,3-fg]quinolin-9-yl)methanone], for which the Ki on 5-HT2A receptor was 3.07 nM. Further, the EC50 on human 5-HT2C receptor was 5.6 nM; at Alpha1A receptor, 116 nM; at D1 receptor, 81.8 nM.

On to `CCN(CC)C(=O)[C@@H]1C=C2c3cccc4[nH]cc(c34)C[C@H]2N(CCCF)C1` [Compound 2, (6aR,9R)—N,N-diethyl-7-(3-fluoropropyl)-4,6,6a,7,8,9-hexahydroindolo[4,3-fg]quinoline-9-carboxamide], for which, on 5-HT2A receptor, the Ki turned out to be 2.79 nM. In addition, the results for the EC50 on human 5-HT2C receptor, on Alpha1A receptor and on D1 receptor were 4.35 nM, 237 nM and 86.4 nM, respectively.

On to `CCCN1C[C@H](C(=O)N(CC)CC)C=C2c3cccc4[nH]cc(c34)C[C@H]21` [Compound 1, (6aR,9R)—N,N-diethyl-7-propyl-4,6,6a,7,8,9-hexahydroindolo[4,3-fg]quinoline-9-carboxamide], for which the Ki on 5-HT2A receptor was 1.06 nM. In addition, the EC50 is 11.9 nM at human 5-HT2C receptor, 8.82 nM at Alpha1A receptor and 4.64 nM on D1 receptor.

As for `CCN(CC)C(=O)[C@@H]1C=C2c3cccc4[nH]cc(c34)C[C@H]2N(CCc2ccccc2OC)C1` [Compound 11, (6aR,9R)—N,N-diethyl-7-(2-methoxyphenethyl)-4,6,6a,7,8,9-hexahydroindolo[4,3-fg]quinoline-9-carboxamide], the Ki on 5-HT2A receptor amounted to 0.69 nM. The EC50 at human 5-HT2C receptor was 74.5 nM; on Alpha1A receptor (setting [1]), over 31600 nM; at D1 receptor (setting [2]), 1590 nM.

For the compound `CCCN1C[C@H](C(=O)N[C@H](C)CC)C=C2c3cccc4[nH]cc(c34)C[C@H]21` [Compound 3, (6aR,9R)—N—((R)-sec-butyl)-7-propyl-4,6,6a,7,8,9-hexahydroindolo[4,3-fg]quinoline-9-carboxamide], the Ki on 5-HT2A receptor was 1.36 nM. The EC50 was 0.822 nM on human 5-HT2C receptor, 42.3 nM on Alpha1A receptor and 47.9 nM on D1 receptor.
